Patent US6350749B1, “Aminoguanidine hydrazone derivatives, process for producing the same and drugs thereof” (Takeda Chemical Industries, Ltd., priority 1998, dated 2002)

Tests used:
Na—H exchange = target: T1, Na—H exchange (Rattus norvegicus, UniProt P26431); assay: Rat platelet swelling in sodium propionate solution (light transmittance of PRP), inhibition of Na—H exchange; assay type: cell-based; settings: 1 min, test compound 10^−7 M; rat platelet rich plasma; value 1 minute after sodium propionate solution; 100% = difference between 1% DMSO and HOE-642 (10^−5M); read-out: Inhibition Rate (%) [10^−7 M]
T1 construct: The blood was centrifuged at 3000 rpm for 5 seconds to obtain platelet rich plasma (PRP); from tissue; host or cells: platelets in platelet rich plasma from abdominal aortic blood of male Wistar rats
T1 sequence (P26431 whole entry): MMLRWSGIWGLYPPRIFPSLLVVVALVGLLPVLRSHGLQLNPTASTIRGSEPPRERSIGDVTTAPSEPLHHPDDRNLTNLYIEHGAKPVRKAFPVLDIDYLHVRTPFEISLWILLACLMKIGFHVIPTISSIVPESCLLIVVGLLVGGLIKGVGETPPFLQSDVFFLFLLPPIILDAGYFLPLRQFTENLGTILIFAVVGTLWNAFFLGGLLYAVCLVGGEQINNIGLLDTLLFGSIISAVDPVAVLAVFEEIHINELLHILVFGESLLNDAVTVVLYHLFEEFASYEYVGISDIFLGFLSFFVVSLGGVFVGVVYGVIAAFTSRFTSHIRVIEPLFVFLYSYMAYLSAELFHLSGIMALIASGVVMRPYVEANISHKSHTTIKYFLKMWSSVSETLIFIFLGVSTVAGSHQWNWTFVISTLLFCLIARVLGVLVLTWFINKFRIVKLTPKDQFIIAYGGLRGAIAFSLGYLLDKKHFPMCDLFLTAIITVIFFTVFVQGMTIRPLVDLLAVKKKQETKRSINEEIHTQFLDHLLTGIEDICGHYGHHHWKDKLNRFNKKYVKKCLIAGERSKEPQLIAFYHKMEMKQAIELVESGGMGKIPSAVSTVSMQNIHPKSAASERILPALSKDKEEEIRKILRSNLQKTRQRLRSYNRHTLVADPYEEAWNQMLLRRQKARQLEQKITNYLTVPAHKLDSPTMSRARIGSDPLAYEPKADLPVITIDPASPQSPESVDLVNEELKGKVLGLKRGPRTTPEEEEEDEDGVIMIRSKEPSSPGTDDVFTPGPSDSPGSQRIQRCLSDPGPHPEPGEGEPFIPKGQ
Procedure: Male Wistar rats (350-450 g) were anesthetized with sodium pentobarbital (50 mg/kg, i.p.). Using a disposable syringe pre-filled with 1.5 ml of 3.8% citric acid solution, 8.5 ml of blood was collected from the abdominal aorta. The blood was centrifuged at 3000 rpm for 5 seconds to obtain platelet rich plasma (PRP). The number of platelets in the PRP was counted by an automatic hemocytometer (Sysmex 2500, TOA Medical Electronics). The PRP was diluted with physiological saline to make the concentration of 40×10^4 platelets per 1 μl. A platelet aggregometer (Hematoracer, Niko Bioscience) was used for measurement of the platelet swelling. 200 μl of the PRP was poured into a cuvette and 600 μl of sodium propionate solution (Na propionate 135, glucose 10, Hepes 20, CaCl2 1, MgCl2 1; Units: mM; pH6.7) was added while stirring at 37° C. The change in the light transmittance of PRP which was an indicator of the platelet swelling was recorded on a plotter. The test compound was added 3 minutes before addition of the sodium propionate solution. The test compounds were dissolved in dimethylsulfoxide (DMSO).

Structure (SMILES) | melting point | inhibition at 0.1 µM (Na—H exchange) [%]
Cc1ccnc2c1C(=NNC(=N)N)CC(c1ccsc1Br)C2.Cl (stereo not shown) [Compound 123, 7-(2-bromothiophen-3-yl)-5-guanidinoimino-4-methyl-5,6,7,8-tetrahydroquinoline hydrochloride] | 243 to 245 °C | 81
COc1ccnc2c1C(=NNC(=N)N)CC(c1ccccc1Cl)C2.CS(=O)(=O)O (stereo not shown) [Compound 79, 7-(2-chlorophenyl)-5-guanidinoimino-4-methoxy-5,6,7,8-tetrahydroquinoline methanesulfonate] | 158 to 159 °C | 77
CS(=O)(=O)O.Cc1ccnc2c1C(=NNC(=N)N)CC(c1ccccc1Cl)C2 (single isomer, unassigned; (-)) [Compound 64, (−)-7-(2-chlorophenyl)-5-guanidinoimino-4-methyl-5,6,7,8-tetrahydroquinoline methanesulfonate] | 194 to 195 °C | 86
Cc1ccccc1C1CC(=NNC(=N)N)c2c(C)c[nH]c2C1.Cl (stereo not shown) [Compound 6, 4-guanidinoimino-3-methyl-6-(2-methylphenyl)-4,5,6,7-tetrahydroindole hydrochloride] | 187 °C (dec.) | 86

More lines, now with the values ahead:

melting point | inhibition at 0.1 µM (Na—H exchange) [%] | Structure (SMILES)
≥ 300 °C | 98 | Cc1n[nH]c2c1C(=NNC(=N)N)CC(c1cc(Cl)sc1Cl)C2.Cl (stereo not shown) [Compound 127, 6-(2,5-dichlorothiophen-3-yl)-4-guanidinoimino-3-methyl-4,5,6,7-tetrahydroindazole hydrochloride]
184 to 187 °C | 76 | Cc1ccsc1C1CC(=NNC(=N)N)c2c(C)ccnc2C1.Cl (stereo not shown) [Compound 73, 5-guanidinoimino-4-methyl-7-(3-methyl-2-thienyl)-5,6,7,8-tetrahydroquinoline hydrochloride]
203 °C (dec.) | 98 | Cc1ccnc2c1C(=NNC(=N)N)CC(c1sccc1Cl)C2.Cl (stereo not shown) [Compound 74, 7-(3-chloro-2-thienyl)-5-guanidinoimino-4-methyl-5,6,7,8-tetrahydroquinoline hydrochloride]
204 °C (dec.) | 100 | Cc1n[nH]c2c1C(=NNC(=N)N)CC(c1sccc1Cl)C2.Cl (stereo not shown) [Compound 119, 6-(3-chloro-2-thienyl)-4-guanidinoimino-3-methyl-4,5,6,7-tetrahydroindazole hydrochloride]
